Experimental data from US20160008333A1, “PROPHYLACTIC OR THERAPEUTIC AGENT FOR POSTERIOR OCULAR DISEASE CONTAINING TETRAHYDROPYRANYLAMINOCYCLOPENTYLCARBONYLTETRAHYDROPYRIDOPYRIDINE DERIVATIVE AS EFFECTIVE INGREDIENT” (SANTEN PHARMACEUTICAL CO., LTD., priority 2013, published 2016).

Key:
Type in all cases: in vivo
[1] = tested on: thrombin-induced retinal vascular hyperpermeability; experiment: Rat model of thrombin-induced retinal vascular hyperpermeability (vitreous protein concentration)
[2] = tested on: choroidal neovascularization; experiment: Krypton laser-induced rat choroidal neovascularization model (fluorescein fundus angiography); conditions: evaluated 7th day after photocoagulation
Description: By using a laser-induced rat choroidal neovascularization model (Invest. Ophthalmol. Vis. Sci., 40(2), 459-466 (1999)), usefulness of the compounds of the present invention was evaluated.
A rat was intramuscularly administered 1 ml/kg of a mixed solution (7:1) comprising a 5% (W/V) ketamine hydrochloride injection solution and a 2% xylazine hydrochloride injection solution to perform general anesthesia, and after a 0.5% (W/V) tropicamide-0.5% phenylephrine hydrochloride eye drop was dropped into eyes to perform mydriasis, photocoagulation was carried out by a krypton laser photocoagulation apparatus. The photocoagulation was carried out at the posterior part of eye ground, while avoiding thick retinal blood vessels, by focusing on the deep retina with eight spots per an eye in a scattered state (coagulation conditions: spot size 100 μm, output 100 mW, coagulation time 0.1 second). After the photocoagulation, the ocular fundus was photographed to confirm laser irradiated sites.
Compound A was mixed with a 1% (W/V) methyl cellulose solution (prepared by dissolving methyl cellulose in purified water) so that it became 0.4, 1.2, 4 and 12 mg/ml, and an administration solution containing Compound A was orally administered twice a day for 7 days from the surgery day including the surgery day of the photocoagulation with a dose of 2, 6, 20 and 60 mg/kg. Incidentally, to the base administered group was similarly administered a 1% (W/V) methyl cellulose solution.
At the 7th day after the photocoagulation, a rat was intramuscularly administered 1 ml/kg of a mixed solution (7:1) comprising a 5% (W/V) ketamine hydrochloride injection solution and a 2% xylazine hydrochloride injection solution to perform general anesthesia, and a 0.5% (W/V) tropicamide-0.5% phenylephrine hydrochloride eye drop was dropped into eyes to perform mydriasis, 0.1 ml of a 10% fluorescein solution was injected into a vein of penis to carry out fluorescein fundus angiography. A spot from which no leakage of fluorescence was admitted by the fluorescein fundus angiography was judged as negative (no neovascularization), and a spot from which leakage of fluorescence was admitted was judged as positive. In addition, when the photocoagulation portions from which a slight leakage of fluorescence was admitted were present two portions, it was judged as positive (neovascularization exists). Thereafter, according to Numerical formula 1, a rate of incidence of choroidal neovascularization (%) was calculated from a number of positive spot(s) to the eight spots to which the laser was irradiated, and a suppressing rate (%) of the evaluated drug was calculated in accordance with Numerical formula 2. Incidentally, a number of the samples of each administered group is 7 or 8. […]

[3] = tested on: TNFα-induced retinal vascular hyperpermeability; experiment: Rat model of TNFα-induced retinal vascular hyperpermeability, intravitreal administration; conditions: 100 μg/eye intravitreally immediately after intravitreal TNFα; vitreous protein at 24 h
Description: To investigate an effectiveness of Compound A by topical administration, the effect of intravitreal administration of Compound A on a rat model of TNFα-induced retinal vascular hyperpermeability was investigated. A model was prepared in the same manner as in Pharmacological test 3. Compound A was dissolved in a mixed solution of dimethylsulfoxide and PLA0020 with a ratio of 4: 1 so that it became 40 mg/ml to prepare a solution of Compound A. Immediately after intravitreal administration of TNFα, the solution of Compound A was intravitreally administered with a dose of 100 μg/eyes. Incidentally, to the base administered group, a mixed solution of dimethylsulfoxide and PLA0020 with a ratio of 4:1 was similarly administered. After 24 hours from intravitreal administration of TNFα, the rat was euthanized by exsanguination, and then, the eyeballs of the rat were excised so as not to mix with a blood. […] The collected vitreous body was optionally diluted by purified water, and the protein concentration was measured by the Bradford method. The protein concentration of the vitreous body thus measured was used as an index of the retinal vascular permeability. Thereafter, according to Numerical formula 4, a suppressing rate (%) of the evaluated drug against the retinal vascular hyperpermeability caused by TNFα was calculated. […]

[4] = tested on: TNFα-induced retinal vascular hyperpermeability; experiment: Rat model of TNFα-induced retinal vascular hyperpermeability, oral administration
From the text: TNFα is a cytokine which has been reported to increase its expression in proliferative diabetic retinopathy or at the vitreous body of retinal vein occlusion (Eye 2006; 20: 1366-1369, Jpn. J. Ophthalmol. 2011; 55: 256-63), and in a streptozocin-induced diabetes model, it has been reported that it participates in onset and progress of diabetic retinopathy through permeability enhancement or histopathological alteration of retinal vessel (Mol. Vis. 2009; 15: 1418-1428). Thus, by using a rat model of TNFα-induced retinal vascular hyperpermeability, usefulness of Compound A, the diastereomer I of Compound A and the diastereomer II of Compound A were evaluated.
A rat was intramuscularly administered 1 ml/kg of a mixed solution (7:1) comprising a 5% (W/V) ketamine hydrochloride injection solution and a 2% xylazine hydrochloride injection solution to perform general anesthesia, and a 0.5% (W/V) tropicamide-0.5% phenylephrine hydrochloride eye drop was dropped into eyes to perform mydriasis. Thereafter, 5 μL of TNFα (10 μg/ml) was injected into the vitreous body by using a 32G needle so as not to damage the crystalline lens and the retina. A rat of normal group was administered PBS (phosphate buffer) in place of the TNFα.
Compound A was dissolved in a 1% (W/V) methyl cellulose solution (prepared by dissolving methyl cellulose in purified water) so that it became 2 and 20 mg/ml to prepare a Compound A solution. The Compound A solution was orally administered with a dose of 10 and 100 mg/kg at 30 minutes before, 6 and 20 hours after administration of TNFα in the vitreous body. The diastereomer I of Compound A and the diastereomer II of Compound A were also similarly prepared and administered. Incidentally, the base administered group was similarly administered a 1% (W/V) methyl cellulose solution.
In addition, RS-504393 which is a CCR2 receptor antagonist was used those purchased from Tocris Bioscience Inc., and orally administered in the same manner with a dose of 3 and 30 mg/kg.
After 24 hours from administration of TNFα in the vitreous body, the rat was euthanized by exsanguination, and then, the eyeballs of the rat were excised so as not to mix with a blood. After extraction of the eyeballs, the vitreous body was rapidly collected by making a tiny cut at around the optic papilla using a surgical scalpel. The collected vitreous body was optionally diluted by purified water, and the protein concentration was measured by the Bradford method. The protein concentration of the vitreous body thus measured was used as an index of the retinal vascular permeability. Thereafter, according to Numerical formula 4, a suppressing rate (%) of the evaluated drug against the retinal vascular hyperpermeability caused by TNFα was calculated. […]

[5] = 10 mg/kg intraperitoneally, vitreous protein 24 h after intravitreal thrombin

C[N+](C)(Cc1ccc(NC(=O)c2ccc(Cl)c(Cl)c2)cc1)C1CCOCC1.[Cl-] [Compound B, N-[4-(3,4-dichlorobenzamido)benzyl]-N,N-dimethyl-N-(tetrahydropyran-4-yl)ammonium chloride]
Retinal vascular permeability suppressing rate (%) [1, 5]: −13%

COC1COCCC1N[C@@H]1CC[C@@](C(=O)N2CCc3ncc(C(F)(F)F)cc3C2)(C(C)C)C1.O=C(O)CCC(=O)O (stereo partly drawn) [Compound A]
Suppressing rate (%) of incidence of choroidal neovascularization ([2]; 2 mg/kg orally twice a day for 7 days): 32.8% | Suppressing rate (%) of incidence of choroidal neovascularization ([2]; 6 mg/kg orally twice a day for 7 days): 39.5% | Suppressing rate (%) of incidence of choroidal neovascularization ([2]; 20 mg/kg orally twice a day for 7 days): 52.9% | Suppressing rate (%) of incidence of choroidal neovascularization ([2]; 60 mg/kg orally twice a day for 7 days): 62.7% | Retinal vascular permeability suppressing rate (%) [3]: 61% | Retinal vascular permeability suppressing rate (%) ([4]; 10 mg/kg orally at 30 min before, 6 and 20 h after intravitreal TNFα, vitreous protein at 24 h): 63% | Retinal vascular permeability suppressing rate (%) ([4]; 100 mg/kg orally at 30 min before, 6 and 20 h after intravitreal TNFα, vitreous protein at 24 h): 88% | Retinal vascular permeability suppressing rate (%) ([1]; 6 mg/kg orally at 30 min before, 6 and 20 h after intravitreal thrombin, vitreous protein at 24 h): 15%

O=C(/C=C/c1cc(F)cc(F)c1)N1CCC([C@@H](CO)N2CCC(c3c[nH]c4ncccc34)CC2)CC1 [Compound C, 2(S)-[1-[3-(3,5-difluorophenyl)-2(E)-propenoyl]piperidin-4-yl]-2-[4-(1H-pyrrolo[2,3-b]pyridin-3-yl)piperidin-1-yl]ethanol]
Retinal vascular permeability suppressing rate (%) [1, 5]: −1%

Cc1ccc2c(c1)C1(CCN(CCc3nc(-c4ccccc4)oc3C)CC1)OC(=O)N2 [RS-504393, reference compound]
Retinal vascular permeability suppressing rate (%) ([4]; 3 mg/kg orally, vitreous protein 24 h after intravitreal TNFα): 18% | Retinal vascular permeability suppressing rate (%) ([4]; 30 mg/kg orally, vitreous protein 24 h after intravitreal TNFα): −13%
